We go through 44 molecules from US11839613B2, “Pyrimidine derivatives as PGE2 receptor modulators” (IDORSIA PHARMACEUTICALS LTD, priority 2017, dated 2023).

pIC50: −log10 of the molar value. A value given as a limit tells only on which side of the number the result lay.

In one assay the target is EP4 (Homo sapiens (Human), UniProt P35408). Description: hEP4 cAMP assay (BT549 breast cancer cells, HTRF cAMP). The assay is classed as cell-based. The note with it: antagonistic activity, PGE2 6 nM. The gist of the method: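 cAMP accumulation quantified by HTRF competition between cellular cAMP and d2-labeled cAMP for cryptate anti-cAMP antibody. Cells: endogenously EP4-expressing BT549, buffer with 2 mM IBMX; 45 min RT compound preincubation preceded 30 min RT challenge with PGE2 at 6 nM final.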

The target of the next assay is EP2 (Homo sapiens (Human), UniProt P43116). Description: hEP2 cAMP assay (SF295 glioblastoma cells, HTRF cAMP). In kind it is cell-based. The note with it: antagonistic activity. The gist of the method: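 PGE2-driven cAMP accumulation was measured by HTRF in SF295 cells, which express endogenous EP2 only. Cells in assay buffer with 2 mM IBMX were pre-incubated 45 min at RT, then incubated 30 min at RT. Detection used competition between cellular cAMP and d2-cAMP for a cryptate anti-cAMP antibody.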
In general terms: Cyclic AMP is a second messenger, typically raised through Gs and lowered through Gi signalling.

In another assay the target is PTGER4 (EP4) (Homo sapiens (Human), UniProt P35408).
The next assay addresses PTGER2 (EP2) (Homo sapiens (Human), UniProt P43116). Briefly: hEP2 b-arrestin assay (PathHunter HEK 293 PTGER2 b-arrestin cells). The note with it: antagonistic activity, beta-arrestin assay; read-out: hEP2 b-arr IC50. The assay is classed as cell-based. Here is the method: Plate is pre-incubated 15 minutes at 37° C. Then five microliters of PGE2 (final conc. 5 μM) are transferred into the assay plate. Plate is incubated 120 minutes at 37° C.
(each concentration is measured in duplicate)

Sequence of EP2 (P43116 whole entry): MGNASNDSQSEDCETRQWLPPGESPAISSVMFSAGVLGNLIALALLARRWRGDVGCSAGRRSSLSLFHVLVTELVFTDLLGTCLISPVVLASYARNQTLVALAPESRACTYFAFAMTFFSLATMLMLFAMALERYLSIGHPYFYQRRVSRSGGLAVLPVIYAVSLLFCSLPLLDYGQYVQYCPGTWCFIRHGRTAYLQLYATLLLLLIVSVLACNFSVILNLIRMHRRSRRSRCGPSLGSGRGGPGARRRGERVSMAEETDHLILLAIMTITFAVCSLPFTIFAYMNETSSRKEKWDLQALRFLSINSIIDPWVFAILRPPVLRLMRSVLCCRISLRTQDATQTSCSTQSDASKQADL
Sequence of EP4 (P35408 whole entry): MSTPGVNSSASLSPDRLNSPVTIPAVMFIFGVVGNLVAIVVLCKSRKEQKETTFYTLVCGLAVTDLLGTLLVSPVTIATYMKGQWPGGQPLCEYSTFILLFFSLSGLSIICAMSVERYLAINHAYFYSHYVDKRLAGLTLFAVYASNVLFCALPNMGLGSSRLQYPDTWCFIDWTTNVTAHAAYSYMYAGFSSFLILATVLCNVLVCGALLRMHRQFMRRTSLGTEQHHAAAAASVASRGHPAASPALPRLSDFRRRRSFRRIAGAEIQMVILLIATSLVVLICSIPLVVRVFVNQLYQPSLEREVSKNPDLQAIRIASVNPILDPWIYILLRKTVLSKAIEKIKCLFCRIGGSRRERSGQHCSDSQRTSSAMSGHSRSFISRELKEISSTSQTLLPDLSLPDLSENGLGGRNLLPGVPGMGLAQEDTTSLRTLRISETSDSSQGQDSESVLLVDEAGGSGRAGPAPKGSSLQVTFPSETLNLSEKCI
Sequence of PTGER4 (EP4) (P35408 whole entry): as above
Sequence of PTGER2 (EP2) (P43116 whole entry): as the sequence (P43116 whole entry) above

One may read the pIC50 as −log10 of the IC50, conventionally taken in molar units. `O=C(O)c1ccc(-c2cc(NCCc3cc4ccccc4cc3OC(F)F)ncn2)cc1OC1CCC1` [Ex 180]: the pIC50 at EP4 is 6.73; against EP2, 6.16; against PTGER4 (EP4) it was 7.26.

Consider `N#Cc1cc2c(cc1CCNc1cc(-c3ccc(C(=O)O)c(OC4CCC4)c3)ncn1)OCCO2` [Ex 113], for which the pIC50 is 7.09 on EP4, 6.60 against EP2 and 6.75 on PTGER4 (EP4).

In the case of `COc1cc2c(cc1CCNc1cc(-c3ccc(C(=O)O)c(SC)c3)ncn1)CCCN2` [Ex 329], the pIC50 was 6.02 at EP4, 6.12 against EP2 and 6.10 at PTGER4 (EP4).

Regarding `CCOc1cc(-c2cc(NCCc3c(C#N)cc4ccccc4c3C)ncn2)ccc1C(=O)O` [Ex 54], the values for the negative logarithm of the IC50 (pIC50) on EP4, at EP2 and against PTGER4 (EP4) were 7.57, 6.48 and 7.17, respectively.

Consider `CCOc1cc(-c2cc(NCCc3cc4ccccc4cc3OC(C)C)ncn2)ccc1OCC(=O)O` [Ex 89], for which the negative logarithm of the IC50 (pIC50) against EP4 is 7.27; on EP2, 4.71; at PTGER4 (EP4), 7.77.

On to `C#Cc1c(CCNc2cc(-c3ccc(C(=O)O)c(OCC)c3)ncn2)ccc2ccccc12` [Ex 141], for which the pIC50 against EP4 was 6.91; against EP2, 6.48; against PTGER4 (EP4), 6.88.

In the case of “(4-{6-[2-(7-Ethynyl-2,3-dihydro-benzo[1,4]dioxin-6-yl)-ethylamino]-pyrimidin-4-yl}-2-propyl-phenyl)-acetic acid [Example 440]”, the pIC50 at EP4 (BT549 cells) is 7.19; at EP2, 7.60; on PTGER4 (EP4), 7.29.

`CCOc1cc(-c2cc(NCCc3cc(F)c4ncccc4c3F)ncn2)sc1C(=O)O` [Ex 86]: the results for the negative logarithm of the IC50 (pIC50) against EP4, on EP2 and against PTGER4 (EP4) were 7.31, 6.35 and 7.10, respectively.

Turning to `CCOc1cc(-c2cc(NCCc3cc4ccccc4cc3OC(C)C)ncn2)sc1C(=O)O` [Ex 31], the negative logarithm of the IC50 (pIC50) at EP4 is 7.74; at EP2, 5.11; at PTGER4 (EP4) it was 8.22.

Take `CCOc1cc(-c2cc(NCCc3cc4c(cc3OC)NCCC4)ncn2)sc1C(=O)O` [Ex 173]: the pIC50 against EP4 was 6.74; against EP2, 6.11; against PTGER4 (EP4) it was 6.89.

Take `CCOc1cc(-c2cc(NCCc3ccc4cccnc4c3C)ncn2)sc1C(=O)O` [Ex 22]: the values for the negative-log IC50 (pIC50) against EP4, at EP2 and against PTGER4 (EP4) were 7.89, 6.40 and 7.70, respectively.

As for `CCOc1cc(-c2cc(NCCc3cc4ccccc4cc3OC(F)F)ncn2)ccc1OCC(=O)O` [Ex 129], the values for the pIC50 at EP4, at EP2 and on PTGER4 (EP4) were 6.98, 6.31 and 7.46, respectively.

As for `CCOc1cc(-c2cc(NCCc3cc4ccn(C)c4cc3F)ncn2)sc1C(=O)O` [Ex 16], the values for the pIC50 against EP4, at EP2 and on PTGER4 (EP4) were 8.10, 6.57 and 8.30, respectively.

Turning to `CCOc1cc(-c2cc(NCCc3ccc4ncccc4c3)ncn2)sc1-c1noc(=O)[nH]1` [Example 338, 3-{3-Ethoxy-5-[6-(2-quinolin-6-yl-ethylamino)-pyrimidin-4-y]-thiophen-2-yl}-[1,2,4]oxadiazol-5(4H)-one], the values for the negative-log IC50 (pIC50) against EP4, at EP2 and against PTGER4 (EP4) were 7.19, 6.34 and 7.82, respectively.

As to `CCOc1cc(-c2cc(NCCc3ccc4sccc4c3)nc(C)n2)ccc1CC(=O)O` [Ex 308], the negative-log IC50 (pIC50) is 6.17 against EP4, 6.03 at EP2 and 6.06 against PTGER4 (EP4).

In the case of `C#Cc1c(CCNc2cc(-c3ccc(OCC(=O)O)c(OCC)c3)ncn2)ccc2ccccc12` [Ex 140], the negative logarithm of the IC50 (pIC50) against EP4 was 6.92; at EP2, 6.34; at PTGER4 (EP4), 7.02.

As to `CCOc1cc(-c2cc(NCCc3cc4ccccc4cc3C#N)ncn2)ccc1OCC(=O)O` [Ex 84], the figures for the pIC50 on EP4, on EP2 and at PTGER4 (EP4) were 7.33, 5.89 and 7.72, respectively.

In the case of `CCOc1cc(-c2cc(NCCc3c(F)cc4ncccc4c3F)ncn2)ccc1OCC(=O)O` [Ex 191], the negative-log IC50 (pIC50) against EP4 is 6.68; on EP2, 6.48; at PTGER4 (EP4) it was 6.55.

With `O=C(O)c1ccc(-c2cc(NCCc3ccc4scnc4c3)ncn2)cc1OC1CCC1` [Ex 291], the pIC50 against EP4 is 6.27; at EP2 it was 6.57; against PTGER4 (EP4), 6.09.

Consider `CCOc1cc(-c2cc(NCCc3cc4ccccc4cc3OC(C)C)ncn2)ccc1C(=O)O` [Ex 284], for which the pIC50 against EP4 is 6.29; against EP2 it was less than 4.55; at PTGER4 (EP4), 6.90.

Take `C=Cc1c(CCNc2cc(-c3cc(OCC)c(C(=O)O)s3)ncn2)ccc2ccccc12` [Ex 75]: the pIC50 is 7.39 against EP4, 6.32 against EP2 and 7.07 on PTGER4 (EP4).

As to `CCOc1cc(-c2cc(NCCc3ccc4c(c3)CCS4)ncn2)ccc1C(=O)O` [Ex 255], the pIC50 was 6.42 against EP4, 6.57 on EP2 and 6.10 at PTGER4 (EP4).

In the case of `CCOc1cc(-c2cc(NCCc3cc4ccccc4cc3C#N)ncn2)ccc1C(=O)O` [Ex 92], the pIC50 at EP4 was 7.24; against EP2, 5.77; on PTGER4 (EP4) it was 6.98.

For the molecule `CCOc1cc(-c2cc(NCCc3ccc4sccc4c3)ncn2)ccc1OCC(=O)O` [Ex 121], the negative-log IC50 (pIC50) against EP4 is 7.03; on EP2, 6.55; on PTGER4 (EP4), 7.38.

As to `CCOc1cc(-c2cc(NCCc3cc4cnccc4cc3F)ncn2)sc1C(=O)O` [Ex 106], the pIC50 against EP4 was 7.13; against EP2, 6.08; at PTGER4 (EP4) it was 6.87.

Regarding `CCOc1cc(-c2cc(NCCc3cc4ccccc4cc3NC)ncn2)ccc1C(=O)O` [Ex 312], the pIC50 was 6.16 against EP4, 5.60 against EP2 and 6.25 against PTGER4 (EP4).

On to `COc1c(CCNc2cc(-c3ccc(C(=O)O)c(SC)c3)ncn2)cc2ccccc2c1Cl` [Ex 186], for which the negative-log IC50 (pIC50) was 6.69 at EP4, 6.09 at EP2 and 6.71 against PTGER4 (EP4).

With `CCOc1cc(-c2cc(NCCc3cc(C)c4c(c3)OCCO4)ncn2)sc1C(=O)O` [Ex 95], the pIC50 was 7.23 at EP4, 6.35 on EP2 and 7.60 on PTGER4 (EP4).

As for `CCOc1cc(-c2cc(NCCc3cc4cccnc4cc3F)ncn2)sc1C(=O)O` [Ex 98], the negative logarithm of the IC50 (pIC50) on EP4 was 7.19; against EP2, 6.50; against PTGER4 (EP4), 7.48.

On to `CCOc1cc(-c2cc(NCCc3ccc4ncsc4c3)ncn2)sc1C(=O)O` [Ex 91], for which the pIC50 at EP4 is 7.25; at EP2, 6.23; at PTGER4 (EP4) it was 7.40.

Take `C#Cc1c(CCNc2cc(-c3ccc(C(=O)O)c(OC4CCC4)c3)ncn2)ccc2ccccc12` [Ex 131]: the results for the negative-log IC50 (pIC50) against EP4, at EP2 and at PTGER4 (EP4) were 6.97, 6.45 and 7.17, respectively.

On to `CCOc1cc(-c2cc(NCCc3c(OC)cc4ccccc4c3F)ncn2)ccc1CC(=O)O` [Ex 37], for which the figures for the negative logarithm of the IC50 (pIC50) on EP4, at EP2 and on PTGER4 (EP4) were 7.66, 6.55 and 7.80, respectively.

Turning to `CCOc1cc(-c2cc(NCCc3cc4c(cc3C#N)OCCO4)ncn2)ccc1C(=O)O` [Ex 203], the negative logarithm of the IC50 (pIC50) against EP4 is 6.63; against EP2, 6.16; against PTGER4 (EP4), 6.45.

Turning to `CCOc1cc(-c2cc(NCCc3cc4cccnc4cc3C)ncn2)sc1C(=O)O` [Ex 177], the pIC50 against EP4 was 6.73; against EP2, 6.55; at PTGER4 (EP4), 6.81.

On to `CCOc1cc(-c2cc(NCCc3ccc4ccccc4c3C)ncn2)ccc1OCCC(=O)O` [Ex 134], for which the pIC50 at EP4 was 7.08; on EP2, 6.45; against PTGER4 (EP4), 7.20.

As to `O=C(O)c1ccc(-c2cc(NCCc3ccc4cccc(F)c4c3)ncn2)cc1OC1CCC1` [Ex 231], the pIC50 was 6.50 on EP4, 5.25 against EP2 and 6.54 at PTGER4 (EP4).

For the molecule `CSc1cc(-c2cc(NCCc3c(F)cc4ccccc4c3F)ncn2)ccc1C(=O)O` [Ex 336], the pIC50 is 6.65 on PTGER2 (EP2) and 6.95 against PTGER4 (EP4).

On to `CCOc1cc(-c2cc(NCCc3ccc4cccc(F)c4c3)ncn2)sc1C(=O)O` [Ex 66], for which the pIC50 on EP4 is 7.46; on EP2, 5.91; against PTGER4 (EP4) it was 7.68.

`CCOc1cc(-c2cc(NCCc3cc4cccnc4c(C)c3Cl)ncn2)ccc1OCC(=O)O` [Ex 179]: the pIC50 at EP4 was 6.73; at EP2, 6.25; at PTGER4 (EP4) it was 6.51.

Turning to `CCOc1cc(-c2cc(NCCc3cc4ccccc4c(Cl)c3OC)ncn2)sc1C(=O)O` [Ex 19], the negative-log IC50 (pIC50) was 7.96 at EP4, 6.60 on EP2 and 7.80 at PTGER4 (EP4).

`CCOc1cc(-c2cc(NCCc3cc4c(cc3Cl)OC(F)(F)O4)ncn2)sc1C(=O)O` [Ex 165]: the values for the negative logarithm of the IC50 (pIC50) against EP4, at EP2 and against PTGER4 (EP4) were 6.79, 6.48 and 6.73, respectively.

Regarding `CCOc1cc(-c2cc(NCCc3cc4ccccc4cc3Cl)ncn2)ccc1C(=O)O` [Ex 279], the pIC50 was 6.31 against EP4, 6.25 against EP2 and 6.13 at PTGER4 (EP4).

For `CCOc1cc(-c2cc(NCCc3ccc4ccsc4c3)ncn2)ccc1OCC(=O)O` [Ex 144], the pIC50 was 6.88 against EP4, 6.12 on EP2 and 7.04 against PTGER4 (EP4).

In the case of `CCOc1cc(-c2cc(NCCc3cc4c(cc3Cl)NCCO4)ncn2)sc1C(=O)O` [Ex 149], the values for the pIC50 against EP4, against EP2 and at PTGER4 (EP4) were 6.84, 6.21 and 6.71, respectively.
